Laboratory results published in US5922554A, “Inhibition of cellular uptake of cholesterol” (The Regents of the University of California, priority 1996, dated 1999).

Tests used:
fibroblast monolayers [1] = assay: Influx/uptake of ^3 H-FC (free cholesterol) from labeled LDL (or plasma, HDL) into normal fibroblast monolayers; format: cell-based, human
fibroblast monolayers [2] = assay: Distribution of cell-associated LDL ^3 H-FC label by release with unlabeled lipoproteins/plasma; format: cell-based, human; conditions: 2 mM NEM; 10 min, 37° C. with 80% v/v plasma-PBS; control 0.57 ± 0.03
Method: Label released by unlabeled LDL (open circles); label released by unlabeled HDL but not unlabeled LDL (closed triangles) and label released with neither LDL or HDL (closed circles) expressed as percent of total label released. LDL specific activity was […]. All fractions are defined in terms of label released by either unlabeled lipoprotein within 5 min of incubation at 37° C.
Cell monolayers equilibrated with 7% plasma-DMEM were first incubated with ^3 H-FC labeled LDL as described above. At intervals, dishes of cells were washed, then incubated with unlabeled LDL or HDL at their plasma concentrations. A fraction of cell-associated label was rapidly released; maximum recovery in the medium occurred within 10 min at 37° C. In FIG. 4, the proportions of cell label which were LDL-releasable, LDL-resistant but HDL-releasable, and resistant to both LDL and HDL are shown as a function of time.
^b Proportion of cell cholesterol label retained in the cells

## CCN1C(=O)C=CC1=O [N-ethylmaleimide]
Fibroblast monolayers [1]
  inhibition of LDL-FC pathway (summary, words): inhibited
Fibroblast monolayers [1]; 30 min preincubation, FIG. 8
  effect on cellular uptake of LDL FC in first 10-15 min of incubation: no effect
Fibroblast monolayers [1]; Homo sapiens, Fibroblast, read-out: concentration for maximal inhibition
  IC (maximal): 2000 to 5000 µM
Fibroblast monolayers [1]; LDL-FC 60.2 μg ml^-1, 60 min, 37° C., 30 min preequilibration with inhibitor at: Na-azide 1 mM, NH4-vanadate 1 mM, NEM 2 mM, KNO3 50 mM, progesterone 30 μM, forskolin 30 μM, IBMX 100 μM, chloroquine 20 μM
  FC Influx: 0.40 ± 0.01 µg
Fibroblast monolayers [1]; NEM or KNO3, Example 1, FIG. 8
  inhibition of uptake of free cholesterol from LDLs (summary): > 80%
Fibroblast monolayers [1]; Table 3 conditions
  effect on LDL FC uptake: blocks selective uptake of FC from LDL
Fibroblast monolayers [1]; cells prelabeled to equilibrium (24 h) with ^3 H-FC
  time to complete inhibition by NEM: ≤ 30 min
Fibroblast monolayers [1]; same concentrations and conditions as Table 3 FC influx, 60 min
  FC Influx, % (PBS only = 100.0): 30.0%
Fibroblast monolayers [1]; time course, 30 min preincubation, after 10-15 min, FIG. 8 (5 mM NEM)
  inhibition of uptake of ^3 H-FC from LDL on further incubation: > 80%
Fibroblast monolayers [2]
  Lipoprotein-resistant label (proportion of cell cholesterol label retained): 0.24 ± 0.03
